For experiment [1], the system named is Aβ40 in conditioned medium of cells stably expressing Amyloid Precursor Protein (APP). The experiment is described as follows: In vitro BACE cell-based assay (HEK cell assay), Aβ40 sandwich ELISA. Conditions: Homo sapiens, HEK293. The method, then:
In Vitro BACE Cell-Based Assay
The cell-based assay measures inhibition or reduction of Aβ40 in conditioned medium of test compound treated cells expressing amyloid precursor protein.
Cells stably expressing Amyloid Precursor Protein (APP) were plated at a density of 40K cells/well in 96 well plates (Costar). The cells were cultivated for 24 hours at 37C. and 5% CO2 in DMEM supplemented with 10% FBS. The test compounds were then added to cells in 10-point dose response concentrations with the starting concentration being either 100 μM or 10 μM. The compounds were diluted from stock solutions in DMSO and the final DMSO concentration of the test compounds on cells was 0.1%. After 24 h of incubation with the test compounds the supernatant conditioned media was collected and the Aβ 40 levels were determined using a sandwich ELISA. The IC50 of the compound was calculated from the percent of control or percent inhibition of Aβ 40 as a function of the concentration of the test compound.
The sandwich ELISA to detect Aβ 40 was performed in 96 well microtiter plates, which were pre-treated with goat anti-rabbit IgG (Pierce). The capture and detecting antibody pair that were used to detect Aβ 40 from cell supernatants were affinity purified pAb40 (Biosource) and biotinylated 6E10 (Signet Labs Inc.), respectively. The optimal concentration for the pAb40 antibody was 3 μg/ml in Superblock/TBS (Pierce) that was supplemented with 0.05% Tween 20 (Sigma). Optimal concentration for the detection antibody 6E10-biotinylated was 0.5 μg/ml in Superblock/TBS (Pierce) that had been supplemented with 2% normal goat serum and 2% normal mouse serum.
Cellular supernatants were incubated with the capture antibody for 3 h at 4° C., followed by 3 wash steps in TBS-tween (0.05%). The detecting antibody incubation was for 2 h at 4° C., again followed by the wash steps as described previously. The final readout of the ELISA is Time-Resolved Fluorescence (counts per minute) using Delfia reagents Streptavidin-Europium and Enhancement solutions (Perkin Elmer) and the Victor 2 multilabel counter (Perkin Elmer).

For experiment [2], the target named is T1, Cathepsin D (Cat D) (Homo sapiens, UniProt P07339).
T1 construct: Recombinant Cat D was expressed in CHO cells; made in house; host or cells: CHO cells
The experiment is described as follows: In vitro enzymatic Cathepsin D (Cat D) FRET assay. It is filed as biochemical. As to conditions: read-out: CatD IC50. On the procedure: In Vitro Enzymatic Cathepsin D (Cat D) FRET (Fluorescence Resonance Energy Transfer) Assay Recombinant Cat D was expressed in CHO cells. […] The Cat D enzyme (9 nM) is pre-incubated for one hour with inhibitors, typically in about 1 uL of DMSO according to a serial dilution, is added thereto. […] The FRET assay is terminated with by addition of Tris buffer, which raises the pH to neutrality, and the fluorescence is determined. The FRET substrate is a peptide with commercially available fluorophore and quencher, on opposite sides of the BACE cleavage site. The Cat D substrate peptide sequence is based on sequence #1 of Table 1 from Gulnik et al. […] Alternatively, a Cat D assay may also be run according to the procedure described in the article, Characterization of new fluorgenic substrates for the rapid and sensitive assay of cathepsin E and cathepsin D, J. Biochem., 125:1137, 1999. In addition, the cathepsin D and cathepsin E assays are described in PCT publication WO2011069934. This WIPO publication describes BACE inhibitor compounds having an amide linker connecting two aromatic groups with extremely poor cathepsin D and/or cathepsin E inhibitory activity (see Table 2). Where available, the in-vitro Cat D FRET assay data for each of the Examples, conducted by the first procedure, is provided.

Experiment [3] has as its target Beta Secretase enzyme (BACE1) (Homo sapiens, UniProt P56817). The experiment is described as follows: In vitro enzymatic BACE FRET assay. The class given is biochemical. Conditions: read-out: BACE1 FRET assay IC50. The method, then: In Vitro Enzymatic BACE FRET (Fluorescence Resonance Energy Transfer) Assay (Enzyme Assay Data in the Example Tables I and II)
The assay buffer used in this screen is 0.05 M acetate, pH 4.2, 10% DMSO final, 100 uM genapol (which is a nonionic detergent, below its Critical Micelle Concentration). […] This assay is effectively started by the addition of FRET substrate (50 nM) and the combination is incubated for one hour. The FRET assay is terminated with by addition of Tris buffer, which raises the pH to neutrality, and the fluorescence is determined. The FRET substrate is a peptide with commercially available fluorophore and quencher, on opposite sides of the BACE cleavage site. Proteolytic cleavage of the FRET substrate releases quenching of fluorescence (excitation […] and […]).

One may read the IC50 as the concentration at which inhibition is half-maximal.

Read-outs that look alike come from different tables or passages of the source. Bounds are passed on as bounds.

Beta Secretase enzyme (BACE1), sequence (P56817 46-501): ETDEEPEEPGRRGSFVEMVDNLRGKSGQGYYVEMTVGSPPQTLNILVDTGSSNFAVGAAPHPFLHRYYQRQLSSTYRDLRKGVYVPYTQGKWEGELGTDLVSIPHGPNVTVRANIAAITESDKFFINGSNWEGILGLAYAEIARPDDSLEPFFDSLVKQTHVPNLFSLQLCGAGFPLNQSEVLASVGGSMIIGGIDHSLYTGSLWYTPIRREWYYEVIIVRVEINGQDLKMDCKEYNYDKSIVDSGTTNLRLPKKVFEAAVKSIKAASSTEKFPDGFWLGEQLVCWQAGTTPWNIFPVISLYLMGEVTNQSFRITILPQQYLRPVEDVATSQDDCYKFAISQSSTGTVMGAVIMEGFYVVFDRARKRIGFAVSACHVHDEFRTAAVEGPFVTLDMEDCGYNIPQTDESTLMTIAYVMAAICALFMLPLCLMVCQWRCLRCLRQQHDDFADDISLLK
T1 sequence (P07339 65-412, species assumed): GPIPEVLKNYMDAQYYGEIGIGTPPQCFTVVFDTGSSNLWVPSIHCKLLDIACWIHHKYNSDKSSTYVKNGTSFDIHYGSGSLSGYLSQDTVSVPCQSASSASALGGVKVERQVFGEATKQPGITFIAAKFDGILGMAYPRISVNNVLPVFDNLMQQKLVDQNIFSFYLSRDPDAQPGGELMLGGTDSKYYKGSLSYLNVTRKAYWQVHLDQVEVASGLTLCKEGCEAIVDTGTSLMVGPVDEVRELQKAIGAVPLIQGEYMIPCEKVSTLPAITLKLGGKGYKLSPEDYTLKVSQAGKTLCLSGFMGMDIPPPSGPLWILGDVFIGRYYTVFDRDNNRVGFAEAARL

As for `C[C@@]1(c2cc(Br)ccc2F)CS(=O)(=O)C2(CCOC2)C(N)=N1` (mixture of isomers) [Example 181, (8R)-10-Amino-8-(5-bromo-2-fluorophenyl)-8-methyl-2-oxa-6-thia-9-azaspiro[4.5]dec-9-ene 6,6-dioxide], the concentration for half-maximal inhibition (IC50) was over 15600 nM in experiment [1] (average IC50, HEK cells); 43300 nM in experiment [2]; 16300 nM in experiment [3] (average IC50).
The matching figures for `C[C@@]1(c2cc(Nc3nccc4cc(Cl)cnc34)ccc2F)CS(=O)(=O)C2(CCOC2)C(N)=N1` (mixture of isomers) [Example 182, (8R)-10-amino-8-(5-((3-chloro-1,7-naphthyridin-8-yl)amino)-2-fluorophenyl)-8-methyl-2-oxa-6-thia-9-azaspiro[4.5]dec-9-ene 6,6-dioxide]: 30.6 nM, 63600 nM and 2.2 nM.
Consider `CC1(C)C(N)=N[C@](C)(c2cc(Nc3nccc4cc(Cl)cnc34)cc(F)c2F)CS1(=O)=O` (single isomer, unassigned) [Example 70], for which the IC50 in experiment [1] (Aβ40, 24 h incubation) was 5040 nM; in experiment [2], 164000 nM; in experiment [3], 830 nM.
The like results for `CC1(C)C(N)=N[C@](C)(c2cc(NC(=O)c3ccc(F)cn3)ccc2F)CS1(=O)=O` [Example 18, N-(3-((3R)-5-amino-3,6,6-trimethyl-1,1-dioxido-3,6-dihydro-2H-1,4-thiazin-3-yl)-4-fluorophenyl)-5-fluoro-2-pyridinecarboxamide] were, in that order, 3.7 nM, over 400000 nM and 1.9 nM.
As to `CC1(C)C(N)=N[C@](C)(c2cc(NC(=O)c3ccc(C(F)F)cn3)ccc2F)CS1(=O)=O` [Example 20, N-(3-((3R)-5-amino-3,6,6-trimethyl-1,1-dioxido-3,6-dihydro-2H-1,4-thiazin-3-yl)-4-fluorophenyl)-5-(difluoromethyl)-2-pyridinecarboxamide], the IC50 in experiment [1] (Aβ40, 24 h incubation) turned out to be 3.9 nM; in experiment [2] it was 193000 nM; in experiment [3], 2.7 nM.
The like results for `CC1(C)C(N)=N[C@](C)(c2cc(NC(=O)c3cnc(C(F)(F)F)cn3)ccc2F)CS1(=O)=O` [Example 21, N-(3-((3R)-5-amino-3,6,6-trimethyl-1,1-dioxido-3,6-dihydro-2H-1,4-thiazin-3-yl)-4-fluorophenyl)-5-(trifluoromethyl)-2-pyrazinecarboxamide] were, in that order, 11 nM, over 400000 nM and 7.4 nM.
As for `COc1ccc(C(=O)Nc2ccc(F)c([C@]3(C)CS(=O)(=O)C(C)(C)C(N)=N3)c2)nc1` [Example 22, N-(3-((3R)-5-amino-3,6,6-trimethyl-1,1-dioxido-3,6-dihydro-2H-1,4-thiazin-3-yl)-4-fluorophenyl)-5-methoxy-2-pyridinecarboxamide], the IC50 in experiment [1] (Aβ40, 24 h incubation) was 3.1 nM; in experiment [2], over 400000 nM; in experiment [3], 1.5 nM.
The like results for `CC1(C)C(N)=N[C@](C)(c2cc(NC(=O)c3ccc(C#N)cn3)ccc2F)CS1(=O)=O` [Example 23, N-(3-((3R)-5-amino-3,6,6-trimethyl-1,1-dioxido-3,6-dihydro-2H-1,4-thiazin-3-yl)-4-fluorophenyl)-5-cyano-2-pyridinecarboxamide] were, in that order, 2.7 nM, 617000 nM and 2.7 nM.
The like results for `CC1(C)C(N)=N[C@](C)(c2cc(NC(=O)c3ncc(Cl)cc3F)ccc2F)CS1(=O)=O` [Example 24, N-(3-((3R)-5-amino-3,6,6-trimethyl-1,1-dioxido-3,6-dihydro-2H-1,4-thiazin-3-yl)-4-fluorophenyl)-5-chloro-3-fluoro-2-pyridinecarboxamide] were, in that order, 3.7 nM, over 400000 nM and 0.6 nM.
For the compound `Cc1cc(Cl)cnc1C(=O)Nc1ccc(F)c([C@]2(C)CS(=O)(=O)C(C)(C)C(N)=N2)c1` [Example 25, N-(3-((3R)-5-amino-3,6,6-trimethyl-1,1-dioxido-3,6-dihydro-2H-1,4-thiazin-3-yl)-4-fluorophenyl)-5-chloro-3-methyl-2-pyridinecarboxamide], the IC50 in experiment [1] (Aβ40, 24 h incubation) worked out at 3.2 nM; in experiment [2] it was 263000 nM; in experiment [3], 0.3 nM.
The matching figures for `CC#CCOc1cnc(C(=O)Nc2ccc(F)c([C@]3(C)CS(=O)(=O)C(C)(C)C(N)=N3)c2)cn1` [Example 26, N-(3-((3R)-5-amino-3,6,6-trimethyl-1,1-dioxido-3,6-dihydro-2H-1,4-thiazin-3-yl)-4-fluorophenyl)-5-(2-butyn-1-yloxy)-2-pyrazinecarboxamide]: 0.05 nM, 475000 nM and 0.4 nM.
On to `CC1(C)C(N)=N[C@](C)(c2cc(Nc3ncnc4cc(Cl)cnc34)ccc2F)C(F)S1(=O)=O` (stereo partly drawn) [Example 228, N-(3-((3R)-5-amino-2-fluoro-3,6,6-trimethyl-1,1-dioxido-3,6-dihydro-2H-1,4-thiazin-3-yl)-4-fluorophenyl)-7-chloropyrido[3,2-d]pyrimidin-4-amine], for which the IC50 turned out to be 58900 nM in experiment [2] and 3.28 nM in experiment [3] (average IC50, enzyme assay).
The matching figures for `CC1(C)C(N)=N[C@](C)(c2cc(Nc3ncnc4cc(C#N)cnc34)ccc2F)C(F)S1(=O)=O` (stereo partly drawn) [Example 229, 4-((3-((3R)-5-amino-2-fluoro-3,6,6-trimethyl-1,1-dioxido-3,6-dihydro-2H-1,4-thiazin-3-yl)-4-fluorophenyl)amino)pyrido[3,2-d]pyrimidine-7-carbonitrile]: 80700 nM and 1.01 nM.
With `NC1=N[C@@](CF)(c2cc(Nc3nccc4cc(Cl)cnc34)ccc2F)CS(=O)(=O)C12CCC2` [Example 244, N-(3-((7R)-9-amino-7-(fluoromethyl)-5,5-dioxido-5-thia-8-azaspiro[3.5]non-8-en-7-yl)-4-fluorophenyl)-3-chloro-1,7-naphthyridin-8-amine], the IC50 in experiment [2] came out at 528000 nM; in experiment [3] (average IC50, enzyme assay), 3530 nM.
On to `COc1ccnc(Oc2ccc(F)c([C@]3(C)CS(=O)(=O)C(C)(C)C(N)=N3)c2)c1` [Example 287, (5R)-5-(2-fluoro-5-((4-methoxy-2-pyridinyl)oxy)phenyl)-2,2,5-trimethyl-5,6-dihydro-2H-1,4-thiazin-3-amine 1,1-dioxide], for which the half-inhibitory concentration (IC50) in experiment [2] stood at 204000 nM; in experiment [3] (average IC50, enzyme assay) it was 100 nM.
The like results for `CC1(C)C(N)=N[C@](C)(c2cc(Oc3ncccn3)ccc2F)CS1(=O)=O` [Example 288, (5R)-5-(2-fluoro-5-(2-pyrimidinyloxy)phenyl)-2,2,5-trimethyl-5,6-dihydro-2H-1,4-thiazin-3-amine 1,1-dioxide] were, in that order, 222000 nM and 125 nM.
In the case of `COc1cnc2c(Oc3ccc(F)c([C@]4(C)CS(=O)(=O)C(C)(C)C(N)=N4)c3)nccc2c1` [Example 305, (5R)-5-(2-fluoro-5-((3-methoxy-1,7-naphthyridin-8-yl)oxy)phenyl)-2,2,5-trimethyl-5,6-dihydro-2H-1,4-thiazin-3-amine 1,1-dioxide], the half-maximal inhibitory concentration (IC50) in experiment [2] amounted to 680000 nM; in experiment [3] (average IC50, enzyme assay) it was 2070 nM.

(Values after patent US20140107109A1, “AMINO-DIHYDROTHIAZINE AND AMINO-DIOXIDO DIHYDROTHIAZINE COMPOUNDS AS BETA-SECRETASE ANTAGONISTS AND METHODS OF USE” (Amgen Inc., priority 2012, published 2014).)
